From patent publication US7462600B2, “Macrolides” (Pfizer Inc, priority 2004, dated 2008)
Converted amounts (≈) assume the structure as drawn. Read-outs that look alike come from different tables or passages of the source.

How the values were obtained:
Type in all cases: cell-based
[1] = tested on: Streptococcus pyogenes 1079; assay: MIC, microtiter broth dilution (NCCLS M100-S14), S. pyogenes 1079 (ermB)
Method in brief: (§1)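 Panel strains, including macrolide-resistant isolates and their susceptible parents where available, are exposed to serial compound dilutions in microtiter trays. Growth inhibition is scored as MIC under NCCLS M100-S14 standards.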

[2] = tested on: Streptococcus pneumoniae 1095; settings: microtiter broth dilution
Method in brief: as §1

[3] = tested on: Streptococcus pneumoniae 1175; settings: microtiter broth dilution
Method in brief: as §1

[4] = tested on: Streptococcus pneumoniae 1016; assay: MIC, microtiter broth dilution (NCCLS M100-S14), S. pneumoniae 1016 (susceptible)
Method in brief: as §1

[5] = tested on: Haemophilus influenzae 1218; assay: MIC, microtiter broth dilution (NCCLS M100-S14), H. influenzae 1218 (susceptible)
Method in brief: as §1

[6] = S. pneumoniae 1016 (susceptible)
[7] = H. influenzae 1218 (susceptible)

Compound | MIC S. pyogenes 1079 ([1]; Streptococcus pyogenes 1079) | MIC S. pneumo. 1095 ([2]; Streptococcus pneumoniae 1095) | MIC S. pneumo. 1175 ([3]; Streptococcus pneumoniae 1175) | MIC S. pneumo. 1016 ([4]; Streptococcus pneumoniae 1016) | MIC H. influenzae 1218 ([5]; Haemophilus influenzae 1218) | MIC S. pyogenes 1079 ([1]; S. pyogenes 1079 (ermB)) | MIC S. pneumo. 1095 ([2]; S. pneumoniae 1095 (ermB)) | MIC S. pneumo. 1175 ([3]; S. pneumoniae 1175 (mefA)) | MIC S. pneumo. 1016 [4, 6] | MIC H. influenzae 1218 [5, 7]
CCC1OC(=O)C(C)C(=O)C(C)C(OC2OC(C)CC(N(C)C)C2O)C(C)(OC)CC(C)C(=O)C(C)C2N(C3CN(S(=O)(=O)c4ccc(-c5nc6ccc(C)cc6s5)cc4)C3)C(=O)OC12C (stereo not shown) [Example 3.54, 3-descladinosyl-11,12-dideoxy-4-O-methyl-3-oxo-12,11-(oxycarbonyl-(1-(4-(6-methylbenzo[d]thiazol-2-yl)benzenesulfonyl)-azetidin-3-yl)imino)-erythromycin A] | 8 µg/mL (≈ 8.38 µM) | 4 µg/mL (≈ 4.19 µM) | 4 µg/mL (≈ 4.19 µM) | <0.06 µg/mL | >64.00 µg/mL | – | – | – | – | –
CCC1OC(=O)C(C)C(=O)C(C)C(OC2OC(C)CC(N(C)C)C2O)C(C)(OC)CC(C)C(=O)C(C)C2N(C3CN(C(c4ccccc4)c4ccncc4)C3)C(=O)OC12C (single isomer, unassigned) [Example 1.68, phenyl-(pyridin-4-yl)methyl (*)] | 32 µg/mL (≈ 38.3 µM) | 4 µg/mL (≈ 4.79 µM) | <0.06 µg/mL | <0.06 µg/mL | 4 µg/mL (≈ 4.79 µM) | – | – | – | – | –
CCC1OC(=O)C(C)C(=O)C(C)C(OC2OC(C)CC(N(C)C)C2O)C(C)(OC)CC(C)C(=O)C(C)C2N(C3CN(C(=O)Nc4cc(-c5ccc(F)cc5)n[nH]4)C3)C(=O)OC12C (stereo not shown) [Example 2.07] | 16 µg/mL (≈ 18.4 µM) | 4 µg/mL (≈ 4.59 µM) | 32 µg/mL (≈ 36.7 µM) | <0.06 µg/mL | 16 µg/mL (≈ 18.4 µM) | – | – | – | – | –
CCC1OC(=O)C(C)C(=O)C(C)C(OC2OC(C)CC(N(C)C)C2O)C(C)(OC)CC(C)C(=O)C(C)C2N(C3CN(S(=O)(=O)c4ccc(Oc5cccnc5)cc4)C3)C(=O)OC12C (stereo not shown) [Example 3.27, 4-(pyridin-3-yloxy) benzenesulfonyl] | 32 µg/mL (≈ 35.5 µM) | <0.06 µg/mL | <0.06 µg/mL | <0.06 µg/mL | 1 µg/mL (≈ 1.11 µM) | – | – | – | – | –
CCC1OC(=O)C(C)C(=O)C(C)C(OC2OC(C)CC(N(C)C)C2O)C(C)(OC)CC(C)C(=O)C(C)C2N(CC3CN(Cc4cn5cccnc5n4)C3)C(=O)OC12C (stereo not shown) [4.27] | >64.00 µg/mL | >64.00 µg/mL | 4 µg/mL (≈ 4.92 µM) | <0.06 µg/mL | 1 µg/mL (≈ 1.23 µM) | – | – | – | – | –
CC[C@H]1OC(=O)[C@H](C)C(=O)[C@H](C)[C@@H](O[C@@H]2O[C@H](C)C[C@H](N(C)C)[C@H]2O)[C@](C)(OC)C[C@@H](C)C(=O)[C@H](C)[C@H]2N(CC3(O)CN(S(=O)(=O)c4cccc5cnccc45)C3)C(=O)O[C@]12C [7.14] | – | – | – | – | – | >64.00 µg/mL | 1 µg/mL (≈ 1.12 µM) | 0.12 µg/mL (≈ 0.135 µM) | <0.06 µg/mL | 0.25 µg/mL (≈ 0.281 µM)
CCC1OC(=O)C(C)C(=O)C(C)C(OC2OC(C)CC(N(C)C)C2O)C(C)(OC)CC(C)C(=O)C(C)C2N(CC3CCN(Cc4ccno4)C3)C(=O)OC12C (stereo not shown) [13.06] | – | – | – | – | – | >64.00 µg/mL | >64.00 µg/mL | 0.5 µg/mL (≈ 0.644 µM) | <0.06 µg/mL | 2 µg/mL (≈ 2.57 µM)
CCC1OC(=O)C(C)C(=O)C(C)C(OC2OC(C)CC(N(C)C)C2O)C(C)(OC)CC(C)C(=O)C(C)C2N(C3CN(Cc4ccccn4)C3)C(=O)OC12C (stereo not shown) [Example 1.02, (pyridin-2-yl)methyl] | >64.00 µg/mL | 0.12 µg/mL (≈ 0.158 µM) | 0.12 µg/mL (≈ 0.158 µM) | <0.06 µg/mL | 0.25 µg/mL (≈ 0.329 µM) | – | – | – | – | –
CCC1OC(=O)C(C)C(=O)C(C)C(OC2OC(C)CC(N(C)C)C2O)C(C)(OC)CC(C)C(=O)C(C)C2N(C3CN(S(=O)(=O)c4ncn5ccccc45)C3)C(=O)OC12C (stereo not shown) [Example 3.19, 3-descladinosyl-11,12-dideoxy-6-O-methyl-3-oxo-12,11-(oxycarbonyl-(1-(H-imidazo[1,5-a]pyridine-1-sulfonyl)-azetidin-3-yl)-imino)-erythromycin A] | 1 µg/mL (≈ 1.18 µM) | <0.06 µg/mL | <0.06 µg/mL | <0.06 µg/mL | 0.25 µg/mL (≈ 0.295 µM) | – | – | – | – | –
CCC1OC(=O)C(C)C(=O)C(C)C(OC2OC(C)CC(N(C)C)C2O)C(C)(OC)CC(C)C(=O)C(C)C2N(CC3CCCN3C(=O)c3cnc4ncccc4c3)C(=O)OC12C (stereo not shown) [10.38] | – | – | – | – | – | >64.00 µg/mL | <0.06 µg/mL | 0.5 µg/mL (≈ 0.587 µM) | <0.06 µg/mL | 1 µg/mL (≈ 1.17 µM)
CCC1OC(=O)C(C)C(=O)C(C)C(OC2OC(C)CC(N(C)C)C2O)C(C)(OC)CC(C)C(=O)C(C)C2N(C3CN(Cc4cc(=O)[nH]c5ccc(Cl)cc45)C3)C(=O)OC12C (stereo not shown) [Example 1.36, (6-chloro-1H-quinolin-2-on-4-yl)methyl] | 8 µg/mL (≈ 9.31 µM) | <0.06 µg/mL | 0.12 µg/mL (≈ 0.14 µM) | <0.06 µg/mL | 0.5 µg/mL (≈ 0.582 µM) | – | – | – | – | –
CCC1OC(=O)C(C)C(=O)C(C)C(OC2OC(C)CC(N(C)C)C2O)C(C)(OC)CC(C)C(=O)C(C)C2N(C3CN(S(=O)(=O)c4ccc5[nH]ncc5c4)C3)C(=O)OC12C (stereo not shown) [Example 3.87, 3-descladinosyl-11,12-dideoxy-6-O-methyl-3-oxo-12,11-(oxycarbonyl-(1-(1H-indazole-5-sulfonyl)-azetidin-3-yl)-imino)-erythromycin A] | 0.19 µg/mL (≈ 0.224 µM) | <0.06 µg/mL | <0.06 µg/mL | <0.06 µg/mL | 0.19 µg/mL (≈ 0.224 µM) | – | – | – | – | –
CCC1OC(=O)C(C)C(=O)C(C)C(OC2OC(C)CC(N(C)C)C2O)C(C)(OC)CC(C)C(=O)C(C)C2N(CC3CCCN3C(=O)c3cnn4cccnc34)C(=O)OC12C (stereo not shown) [10.51] | – | – | – | – | – | >64.00 µg/mL | <0.06 µg/mL | 0.5 µg/mL (≈ 0.595 µM) | <0.06 µg/mL | 1 µg/mL (≈ 1.19 µM)
CCC1OC(=O)C(C)C(=O)C(C)C(OC2OC(C)CC(N(C)C)C2O)C(C)(OC)CC(C)C(=O)C(C)C2N(C3CCN(Cc4cccc5ncccc45)C3)C(=O)OC12C [Example 9.02, 3-descladinosyl-11,12-dideoxy-6-O-methyl-3-oxo-12,11-(oxycarbonyl-(1-((quinolin-5-yl)-methyl)-(R)-pyrrolidin-3-yl)-imino)-erythromycin A] | – | – | – | – | – | 8 µg/mL (≈ 9.72 µM) | <0.06 µg/mL | 0.12 µg/mL (≈ 0.146 µM) | <0.06 µg/mL | 0.5 µg/mL (≈ 0.608 µM)
CCC1OC(=O)C(C)C(=O)C(C)C(OC2OC(C)CC(N(C)C)C2O)C(C)(OC)CC(C)C(=O)C(C)C2N(CC3CCCN3Cc3ccnc4ccccc34)C(=O)OC12C (stereo not shown) [10.04] | – | – | – | – | – | 16 µg/mL (≈ 19.1 µM) | <0.06 µg/mL | <0.06 µg/mL | <0.06 µg/mL | 0.5 µg/mL (≈ 0.597 µM)
CCC1OC(=O)C(C)C(=O)C(C)C(OC2OC(C)CC(N(C)C)C2O)C(C)(OC)CC(C)C(=O)C(C)C2N(C3CN(S(=O)(=O)c4ccc(F)c(-c5cnco5)c4)C3)C(=O)OC12C (stereo not shown) [Example 3.88, 3-descladinosyl-11,12-dideoxy-6-O-methyl-3-oxo-12,11-(oxycarbonyl-(1-(4-fluoro-3-(oxazol-5-yl)benzenesulfonyl)-azetidin-3-yl)-imino)-erythromycin A] | 8 µg/mL (≈ 8.96 µM) | <0.06 µg/mL | <0.06 µg/mL | <0.06 µg/mL | 2 µg/mL (≈ 2.24 µM) | – | – | – | – | –
CCC1OC(=O)C(C)C(=O)C(C)C(OC2OC(C)CC(N(C)C)C2O)C(C)(OC)CC(C)C(=O)C(C)C2N(C3CN(S(=O)(=O)c4ccc(-c5nnn(C)n5)cc4)C3)C(=O)OC12C (stereo not shown) [Example 3.51, 3-descladinosyl-11,12-dideoxy-6-O-methyl-3-oxo-12,11-(oxycarbonyl-(1-(4-(2-methyl-2H-tetrazol-5-yl)benzenesulfonyl)-azetidin-3-yl)-imino)-erythromycin A] | 0.5 µg/mL (≈ 0.562 µM) | <0.06 µg/mL | <0.06 µg/mL | <0.06 µg/mL | 2 µg/mL (≈ 2.25 µM) | – | – | – | – | –
CCC1OC(=O)C(C)C(=O)C(C)C(OC2OC(C)CC(N(C)C)C2O)C(C)(OC)CC(C)C(=O)C(C)C2N(C3CN(S(=O)(=O)c4cccc(Oc5ccc(F)cc5)c4)C3)C(=O)OC12C (stereo not shown) [Example 3.110, 3-descladinosyl-11,12-dideoxy-6-O-methyl-3-oxo-12,11-(oxycarbonyl-(1-(3-(4-fluorophenoxy)benzene-1-sulfonyl)-azetidin-3-yl)-imino)erythromycin A] | 4 µg/mL (≈ 4.36 µM) | <0.063 µg/mL | <0.063 µg/mL | <0.063 µg/mL | 2 µg/mL (≈ 2.18 µM) | – | – | – | – | –
CCC1OC(=O)C(C)C(=O)C(C)C(OC2OC(C)CC(N(C)C)C2O)C(C)(OC)CC(C)C(=O)C(C)C2N(C3CN(Cc4ccc(-n5cccn5)nc4)C3)C(=O)OC12C (stereo not shown) [Example 1.45] | 16 µg/mL (≈ 19.4 µM) | <0.06 µg/mL | 0.5 µg/mL (≈ 0.606 µM) | <0.06 µg/mL | 4 µg/mL (≈ 4.85 µM) | – | – | – | – | –
CCC1OC(=O)C(C)C(=O)C(C)C(OC2OC(C)CC(N(C)C)C2O)C(C)(OC)CC(C)C(=O)C(C)C2N(CC3CCCN3C(=O)c3cn4ccccc4n3)C(=O)OC12C (stereo not shown) [10.54] | – | – | – | – | – | 64 µg/mL (≈ 76.2 µM) | <0.06 µg/mL | 0.25 µg/mL (≈ 0.298 µM) | <0.06 µg/mL | 1 µg/mL (≈ 1.19 µM)
